What was measured:
[1] = Daily dosing for 11 consecutive days, PK and hemodynamics (Example 2); assay type: in vivo, human
[2] = Daily dosing for 14 days in healthy patients (Example 3); assay type: in vivo, human; conditions: 25, 75 and 125 mg daily for 14 days, meal 15 minutes prior to dosing
Experimental: A standardized meal was served 15 minutes prior to each dosing.

[3] = Preliminary studies of daily use over 7, 10 and 14 days; assay type: in vivo; conditions: 75, 100, 125 and 150 mg a day over 7, 10 and 14 days
Source text: However, control and prevention of events of cardiac arrhythmia are important to these patients to prevent future re-occurrences and the deleterious effects and morbidity.

[4] = human, in vivo
Source text: Furthermore, steady state plasma levels are achieved within 3 days of oral dosing in some studies and up to 14 days in other studies. In human studies, the typical time is between about 3-11 days for reaching steady state status. […] This provides for an opportunity to achieve steady state plasma levels for restoration or maintenance of normal sinus rhythm in mammals.

[5] = Daily dosing for 7 days in four patients (Example 4); assay type: in vivo, human; conditions: 50, 100 and 150 mg daily, all patients
[6] = test system: recent onset symptomatic AF/AFL; test: Randomised double-blind single oral dose study: conversion of recent onset symptomatic AF/AFL to sinus rhythm (Example 1); assay type: in vivo, human; conditions: for Conversion of Atrial Flutter, %: pure atrial flutter subjects (N 4), any time within 24 hours
Experimental: (§1) The vanoxerine or identical appearing placebo was randomly assigned and administered in a double-blinded fashion.
Inclusion criteria included: male or female over the age of […], symptomatic AF/AFL for more than 3 hours and less than 7 days, as dated by symptoms, and adherence to local clinical standards or the […] practice guidelines for AF/AFL regarding thromboembolic event prevention and treatment
Exclusion Criteria Included: • (a) Systolic blood pressure <100 mmHG, HR <50 bpm • (b) Average QTcF >440 ms, […] >140 ms • (c) Paced atrial or ventricular rhythm • (d) Serum potassium <3.5 meq/L • (e) History of receiving another Class 1 or Class III antiarrhythmic drug within 3 days of randomization, amiodarone (oral or IV) within 3 months • (f) Acute coronary syndrome within 30 days prior to randomization • (g) Aortic stenosis with AVA ≦1.0 cm^2 • (h) Mitral stenosis with MVA of <1.5 cm^2 • (i) Acute pulmonary edema/embolism • (j) Stroke within 30 days or TIA within 48 hours • (k) Untreated hyperthyroidism • (l) Acute pericarditis • (m) Postoperative AF/AFL within 7 days • (n) History of failed Direct current cardioversion • (o) History of polymorphic ventricular tachycardia (e.g. Torsade de Pointes) • (p) History or family history of long QT syndrome • (q) History of ventricular tachycardia requiring drug or device therapy • (r) History of NYHA Heart Failure Class III or IV or recent (within 1 month) onset of heart failure not related to rapid ventricular response AF • (s) Ejection fraction of 35% or less • (t) History of prior ablation therapy for cardiac arrhythmias
4-Hour Efficacy Endpoints: • (a) the proportion of subjects who convert to sinus rhythm for at least 1 minute through 4 hours after start of study drug. • (b) the proportion of subjects in sinus rhythm at 4 hours after start of study drug • (c) time to restoration of sinus rhythm within 4 hours
24-Hour Efficacy Endpoints • (a) the proportion of subjects who convert to sinus rhythm for at least 1 minute through 24 hours after start of study drug. • (b) the proportion of subjects in sinus rhythm at 24 hours after start of study drug • (c) time to restoration of sinus rhythm within 24 hours
Statistical Considerations: • (a) Placebo subjects in all dose cohorts pooled to create one placebo dose group for comparison to the active dose groups • (b) each dose group compared separately with placebo • (c) Fisher's exact tests for difference in proportions between each dose level and placebo • (d) Time to restoration tested using the Kaplan-Meier method with difference in survivor functions; Log-Rank test used to compare each dose level with placebo • (e) No correction for multiple comparisons among dose groups.

[7] = Adverse events in the single dose AF/AFL study (Example 1); assay type: in vivo, human
Source text: as §1

Plasma levels ([1]; 25 mg daily): not detectable after 8 hours | PK linearity ([1]; 50, 75 and 100 mg doses): linear and dose proportional | Plasma levels ([1]; 50, 75 and 100 mg doses): detectable at 24 hours | Time at which steady state was reached ([1]; 50, 75 and 100 mg doses): ≤ 8 days | Time for reaching steady state status [4]: 3 to 11 days | Time to steady state levels [5]: within one week
Structure (SMILES): Fc1ccc(C(OCCN2CCN(CCCc3ccccc3)CC2)c2ccc(F)cc2)cc1 [vanoxerine, 1-[2-[bis(4-fluorophenyl)methoxy]ethyl]-4-(3-phenylpropyl)piperazine]
Heart rate and systolic blood pressure ([1]; 75 and 100 mg doses): increased slightly in most subjects | Adverse events [2]: No significant adverse events | Heart rate and systolic blood pressure [3]: may lead to increased heart rate and systolic blood pressure | Percent conversion to sinus rhythm ([6]; 200 mg single dose, 0-4 hr): 18% | Percent conversion to sinus rhythm ([6]; 200 mg single dose, 0-8 hr): 45% | Percent conversion to sinus rhythm ([6]; 200 mg single dose, 0-24 hr): 59% | Conversion of Atrial Flutter, % ([6]; 200 mg): 50% | Percent conversion to sinus rhythm ([6]; 300 mg single dose, 0-4 hr): 40% | Percent conversion to sinus rhythm ([6]; 300 mg single dose, 0-8 hr): 52% | Percent conversion to sinus rhythm ([6]; 300 mg single dose, 0-24 hr): 64% | Conversion of Atrial Flutter, % ([6]; 300 mg): 75% | Percent conversion to sinus rhythm ([6]; 400 mg single dose, 0-4 hr): 52% | Percent conversion to sinus rhythm ([6]; 400 mg single dose, 0-8 hr): 76% | Percent conversion to sinus rhythm ([6]; 400 mg single dose, 0-24 hr): 84% | Conversion of Atrial Flutter, % ([6]; 400 mg): 75% | Conversion to sinus rhythm ([6]; all doses of vanoxerine, at about 7 hours): greater than 40% | Conversion to sinus rhythm ([6]; all doses, at 12 hours): greater than 50% | Conversion to sinus rhythm ([6]; all doses, at about 16 hours): ~60% | Number of adverse events reported ([7]; 200 mg): 8 AEs | Subjects reporting adverse events, N (%) ([7]; 200 mg (22 subjects)): 4 (18%) subjects | Number of adverse events reported ([7]; 300 mg): 12 AEs | Subjects reporting adverse events, N (%) ([7]; 300 mg (25 subjects)): 7 (28%) subjects | Number of adverse events reported ([7]; 400 mg): 23 AEs | Subjects reporting adverse events, N (%) ([7]; 400 mg (25 subjects)): 10 (40%) subjects | Tolerability ([7]; 200, 300 and 400 mg single doses): well tolerated at all doses | 1:1 AFL post dose ([7]; all doses): No 1:1 AFL seen post dose in any subject | Serious adverse events, all doses ([7]; all doses, neither related to the study drug): two | Proarrhythmia ([7]; single doses 200-400 mg): absence of proarrhythmia

Source: patent publication US20160051542A1 (CHANRX CORPORATION, priority 2013, published 2016)
